# Reference: patent US6355669B1, “Retinoic acid agonists as preventive and therapeutic agents for nephritis” (Eisai Co., Ltd., priority 1997, dated 2002)
# Experiments:
# human RARα = target: T1, human RARα (Homo sapiens, UniProt P10276); assay: RAR binding assay (inhibition of 3H-all-trans-retinoic acid binding), RAR-α; parameters: expressed in transfected cells; details: nuclear extract of BHK cells expressing human RARα, read-out: Receptor binding assay IC50 (nM) RAR-α
# T1 sequence (P10276 1-462): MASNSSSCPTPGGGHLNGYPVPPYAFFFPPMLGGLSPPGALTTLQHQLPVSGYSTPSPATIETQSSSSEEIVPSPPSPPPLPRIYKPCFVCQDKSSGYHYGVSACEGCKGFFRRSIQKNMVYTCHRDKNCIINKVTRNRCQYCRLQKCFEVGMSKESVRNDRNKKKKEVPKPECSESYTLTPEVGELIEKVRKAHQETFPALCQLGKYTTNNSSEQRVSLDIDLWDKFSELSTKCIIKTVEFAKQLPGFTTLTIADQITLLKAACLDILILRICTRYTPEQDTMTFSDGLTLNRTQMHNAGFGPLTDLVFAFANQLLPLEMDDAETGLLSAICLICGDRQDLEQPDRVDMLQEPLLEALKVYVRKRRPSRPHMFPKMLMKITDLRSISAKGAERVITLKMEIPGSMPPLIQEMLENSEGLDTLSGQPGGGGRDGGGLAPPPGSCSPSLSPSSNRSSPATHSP
# Experimental: (§1) Cells constantly expressing RARα, β and γ proteins were prepared by introducing human RARα, β and γ genes into BHK (baby hamster kidney) cells. A nuclear fraction of these cells was used to construct an experimental system for measuring the specific binding of all-trans-retinoic acid to RAR, and in this experimental system, the ability of each test compound to bind to […] was examined by measuring the degree of inhibition of binding. Further, the ability of each test compound to bind to each receptor subtype was compared to determine the selectivity of the compound for RAR subtype.
# (§2) 5×10^8 BHK cells having the RAR gene introduced into them were suspended in 15 ml solution A (5 mM sodium phosphate (pH 7.4), 10 mM monothioglycerol, 10% (v/v) glycerol, 1 mM phenyl methyl sulfonyl fluoride (PMSF), 10 μg/ml aprotinin, 25 μg/ml leupeptin), then homogenized therein and centrifuged, and the supernatant was removed. The resulting pellet was suspended in 15 ml buffer B (10 mM Tris-HCl (pH 8.5), 10 mM monothioglycerol, 10% (v/v) glycerol, 1 mM PMSF, 10 μg/ml aprotinin, 25 μg/ml leupeptin, 0.4 M potassium chloride), then left at 4° C. for 1 hour and ultracentrifuged at 100,000×g, 4° C. for 1 hour. The resulting supernatant was frozen and stored as a nuclear extract fraction at −80° C. until use (Methods in Enzymology, 189, 248).
# (§3) 180 μl of the extract fraction and 10 μl diluted solution of all-trans-retinoic acid or a test compound were added to each well on a 96-well plate made of polypropylene, and further 10 μl of 10 nM ^3H-all-trans-retinoic acid was added thereto and left at 4° C. for 16 hours. 3% charcoal-0.3% dextran solution was added to the reaction solution and centrifuged whereby free ^3H-all-trans-retinoic acid was separated, and the count in the supernatant was determined by a scintillation counter. The count when a 500-fold excess of non-labeled all-trans-retinoic acid was added was subtracted as unspecific binding from the value obtained, to determine the amount of each compound binding specifically to RAR.
# (§4) The concentration (IC50) of each compound at which the binding of ^3H-all-trans-retinoic acid was inhibited by 50% was determined and the results are shown in Tables 3-1 and 3-2.
# human RARγ = target: T2, human RARγ (Homo sapiens, UniProt P13631); assay: RAR binding assay (inhibition of 3H-all-trans-retinoic acid binding), RAR-γ; parameters: expressed in transfected cells; details: nuclear extract of BHK cells expressing human RARγ, read-out: Receptor binding assay IC50 (nM) RAR-γ
# T2 sequence (P13631 1-454): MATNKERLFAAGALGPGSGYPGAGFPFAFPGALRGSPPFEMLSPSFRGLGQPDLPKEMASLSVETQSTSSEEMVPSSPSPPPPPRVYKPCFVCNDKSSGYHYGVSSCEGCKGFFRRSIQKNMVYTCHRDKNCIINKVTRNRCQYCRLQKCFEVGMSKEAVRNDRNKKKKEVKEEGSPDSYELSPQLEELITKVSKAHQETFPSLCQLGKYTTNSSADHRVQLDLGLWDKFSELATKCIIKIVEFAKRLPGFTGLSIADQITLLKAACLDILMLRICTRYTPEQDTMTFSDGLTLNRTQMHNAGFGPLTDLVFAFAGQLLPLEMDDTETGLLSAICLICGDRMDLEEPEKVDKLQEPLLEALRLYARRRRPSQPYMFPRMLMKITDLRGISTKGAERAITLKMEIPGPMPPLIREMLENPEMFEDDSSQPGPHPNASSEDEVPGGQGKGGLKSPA
# Experimental: as §1, §2, §3, §4
# human RARβ = target: T3, human RARβ (Homo sapiens, UniProt P10826); assay: RAR binding assay (inhibition of 3H-all-trans-retinoic acid binding), RAR-β; parameters: expressed in transfected cells; details: nuclear extract of BHK cells expressing human RARβ, read-out: Receptor binding assay IC50 (nM) RAR-β
# T3 sequence (P10826 1-455): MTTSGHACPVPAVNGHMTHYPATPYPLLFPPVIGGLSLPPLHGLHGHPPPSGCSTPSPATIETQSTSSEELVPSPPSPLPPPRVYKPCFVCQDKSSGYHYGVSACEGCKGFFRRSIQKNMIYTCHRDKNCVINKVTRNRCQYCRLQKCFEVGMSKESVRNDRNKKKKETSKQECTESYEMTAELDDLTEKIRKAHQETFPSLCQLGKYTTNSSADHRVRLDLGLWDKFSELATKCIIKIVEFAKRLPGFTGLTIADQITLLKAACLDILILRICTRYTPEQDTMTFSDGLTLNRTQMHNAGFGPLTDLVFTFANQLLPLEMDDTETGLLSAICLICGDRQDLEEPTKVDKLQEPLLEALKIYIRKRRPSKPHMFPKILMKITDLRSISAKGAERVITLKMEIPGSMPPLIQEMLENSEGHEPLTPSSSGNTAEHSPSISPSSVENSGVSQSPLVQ
# Experimental: as §1, §2, §3, §4
# [1] = test system: accelerated Masugi nephritis; assay: Rat model with accelerated Masugi nephritis (proteins excreted in urine for 24 hours); format: in vivo, Sprague-Dawley strain rats; details: oral once every day, compared with the control group
# Experimental: Sprague-Dawley strain rats were immunized by subcutaneously administering rabbit γ-globulin in a dose of 4 mg/rat along with Freund's complete adjuvant into the bottoms of their both hind legs. On the 5th day after the rats were immunized, 1 ml of anti-rat glomerular basement membrane rabbit serum diluted 6- or 8-fold was administered via tail veins into the animals. On the 8th day, the rats were forced to be orally administered 8 ml sterilized water and then placed in a metabolism cage, and their urine was collected for 24 hours during which the animals were allowed neither food nor water. As the indicator of the model with accelerated Masugi nephritis, the amount of proteins excreted in urine for 24 hours was used.
# The medium was administered into the control group.
# [2] = test system: anti-dinitrophenyl (DNP) IgG2a antibody titer; assay: Mouse model producing antibody (anti-DNP IgG2a antibody titer in serum, ELISA); format: in vivo, BALB/c mice; details: for effect on anti-DNP IgG2a: dose 0.1 mg/kg oral once every day for 10 days, 10th day after immunization
# Experimental: BALB/c mice were immunized by administering dinitrophenylated keyhole limpet hemocyanin (DNP-KLH) as antigen intraperitoneally into them in a dose of 100 μg/mouse along with Freund's complete adjuvant. On the 10th day after the day on which the mice were immunized, blood was collected from the orbital venous plexus of the animals under anesthesia with ether and examined for anti-dintrophenyl (DNP) IgG2a antibody titer in serum by the ELISA method.
# The test compounds B, E, F, G and H were suspended in 0.5% aqueous methyl cellulose solution and orally administered into the animals once every day for 10 days from the day when the animals were immunized with DNP-KLH. The medium was administered into the control group.
IC50 (human RARα),IC50 (human RARγ),IC50 (human RARβ),SMILES,other results
1 nM,> 500 nM,–,O=C(O)c1ccc(-c2ccc(-c3cc4c(Cl)ccc(Cl)c4o3)[nH]2)cc1,–
3.8 nM,> 500 nM,> 500 nM,O=C(O)c1ccc(-c2ccc(-c3cc4c(F)ccc(Cl)c4o3)[nH]2)cc1,–
–,–,–,"CC1(C)CCCc2ncc(-c3ccc(-c4ccc(C(=O)O)cc4)[nH]3)nc21 [Compound E, 4-{2-{5-[2-(8,8-dimethyl-5,6,7,8-tetrahydroquinoxalynyl)]pyrrolyl}}benzoic acid]","Degree of Inhibition of Albuminuria (%) ([1]; dose 1.0 mg/kg, 1 mg/kg): 85.8%; effect on anti-DNP IgG2a [2]: significantly inhibited"
–,–,–,"CC1CCCN(C)c2ccc(-c3ccc(-c4ccc(C(=O)O)cc4)[nH]3)cc21 (centres unmarked) [Compound F, 4-{2-{5-[7-(1,5-dimethyl-2,3,4,5-tetrahydro-1H-benzazepinyl)]pyrrolyl}}benzoic acid]","Degree of Inhibition of Albuminuria (%) ([1]; dose 1.0 mg/kg, 1 mg/kg): 71.1%; effect on anti-DNP IgG2a [2]: significantly inhibited"
–,–,–,"COCc1cc2c(cc1-c1ccc(-c3ccc(C(=O)O)cc3)[nH]1)C(C)(C)CCC2(C)C [Compound H, 4-{2-[5-(3-methoxymethyl-5,6,7,8-tetrahydro-5,5,8,8-tetramethylnaphthalene-2-yl)pyrrolyl}}benzoic acid]","Degree of Inhibition of Albuminuria (%) ([1]; dose 0.3 mg/kg, 0.3 mg/kg): 61.3%; effect on anti-DNP IgG2a [2]: showed a tendency to inhibit"
–,–,–,"C[Si](C)(C)c1cc(C(=O)Nc2ccc(C(=O)O)cc2)cc([Si](C)(C)C)c1 [Compound I, 4-{[(3,5-bistrimethylsilylphenyl)carbonyl]amino}benzoic acid]","Degree of Inhibition of Albuminuria (%) ([1]; dose 1.0 mg/kg, 1 mg/kg): 89.4%"
–,–,–,CCn1nc(-c2ccc(-c3ccc(C(=O)O)cc3)[nH]2)cc1C(C)C [G],effect on anti-DNP IgG2a [2]: significantly inhibited
0.6 nM,195 nM,107 nM,O=C(O)c1ccc(-c2ccc(-c3cc4c(C(F)(F)F)ccc(F)c4o3)[nH]2)cc1 [drawing 11],–
< 0.5 nM,270 nM,160 nM,CCc1ccc(C)c2cc(-c3ccc(-c4ccc(C(=O)O)cc4)[nH]3)oc12 [drawing 13],–
0.6 nM,140 nM,56 nM,CC1(C)CCC(C)(C)c2nc(-c3ccc(-c4ccc(C(=O)O)cc4)[nH]3)cnc21 [drawing 14],–
1 nM,130 nM,58 nM,CC1CCCN(C)c2ncc(-c3ccc(-c4ccc(C(=O)O)cc4)[nH]3)nc21 (centres unmarked) [drawing 16],–
–,–,–,"CCOC(=O)/C=C(C)/C=C/C=C(C)/C=C/c1c(C)cc(OC)c(C)c1C [etretinate, reference compound]","effect on production of anti-DNP antibody ([2]; 50 mg/kg, administered in the same manner as the test compounds): showed a tendency to inhibit"

SMILES,IC50 (human RARα),IC50 (human RARγ),IC50 (human RARβ),other results
Cc1ccc(C)c2oc(-c3ccc(-c4ccc(C(=O)O)cc4)[nH]3)cc12 [drawing 8],1.4 nM,> 500 nM,340 nM,–
Cc1ccc(C)c2c(F)c(-c3ccc(-c4ccc(C(=O)O)cc4)[nH]3)oc12 [drawing 12],< 0.5 nM,225 nM,49 nM,–
COCc1cc2c(cc1-c1ccc(-c3ccc(C(=O)O)cc3)[nH]1)C(C)(C)CCC2(C)C [drawing 18],10 nM,83 nM,230 nM,–
C[Si](C)(C)c1cc(C(=O)Nc2ccc(C(=O)O)cc2)cc([Si](C)(C)C)c1 [drawing 19],6.4 nM,> 500 nM,> 500 nM,–
